We go through four molecules from US9062051B2, “Compounds and pharmaceutical compositions thereof for the treatment of proliferative disorders” (GALAPAGOS NV, priority 2014, dated 2015).

One series deals with MDA-MB-231 cells. The series is described as follows: Mouse xenograft model of human triple negative breast cancer (MDA-MB-231), tumorous growth inhibition. It counts as in vivo, Female BALB/c Mice. As to conditions: day 26, 20 mg/kg, ip, 3x/ week. As to the method:
Animals (Female BALB/c Mice, Harlan, 51930, 18-20 g) are provided with filtered tap water and standard chow ad libitum and maintained at 22±2° C. in 55±10% humidity on a 12 h light/dark cycle.
Paclitaxel used as a positive control is formulated by 1/3 dilution of commercial solution (Fresenius kabi, 871WF014/4) in saline.
The test compounds for po administration are formulated in 0.5% methylcellulose (VWR, ref AX021233).
MDA-MB-231 cell line is obtained from the ATCC collection (ref HTB-26). The cells are then cultured in RPMI 1640 medium supplemented with […] (Gibco 15140-148) and 1% (v/v) L-Glutamine 200 mM (Gibco 25030-024) at 37° C. in a 5% CO2 incubator.
5 million MDA-MB-231 cells/mice in 0.1 mL of 50% Matrigel (BD biosciences, LDEV free 256235)+50% D-PBS 1× (Gibco 14190-086) are injected by subcutaneous route on the upper back of 120 mice. Prior to implantation, mice are anesthetized by intra-peritoneal injection with a 0.1 mL/10 g dose of anaesthetic solution (18 mL NaCl, 0.9%+0.5 mL xylazine, +1.5 mL ketamine. […]
Body weight, and tumor growth is recorded twice a week during the course of treatment.
After 26 days the treatment is stopped, in each group half of the mice are euthanized for tissue collection, and the other half is kept for a further 7 days, during which period body weight and tumour sized are measured.
In sacrificed mice, blood and tumours are collected, analysed, and the effect of the test compounds is compared with controls (vehicle and paclitaxel).
The values were obtained using the following calculations
Relative Tumor Volume (RTV):
Tumor Growth Inhibition (TGI) TGI=1−T/C
A general note: In xenograft studies the graft and the host belong to different species.

The target in another series is T1, EphA2 (UniProt Ref: P29317) (Homo sapiens, UniProt P29317).
T1 construct: purchased Reaction Biology
The series is described as follows: EphA2 assay (Reaction Biology HotSpot radioactive kinase assay). The format is biochemical. As to conditions: ATP 10 μM; read-out: EphA2 potency IC50. As for the experimental part:
Inhibition of EphA2 (UniProt Ref: P29317) by a test compound is determined by a commercially available Reaction Biology proprietary nanoliter radioactive HotSpot^SM assay (Reaction Biology, One great valley parkway, Suite 2, Malvern Pa., 19355, USA). The principle of the assay consists of the measurement of incorporated ^33P into poly[Glu:Tyr] (4:1) (0.2 mg/mL) when the substrate is phosphorylated by the enzyme using [^33P]-γ-ATP and ATP (10 μM).
To determine the IC50, a serial dilution of compound is tested starting from 10, or 3 μM (highest dilution) with a 1/3 dilution.

Series [1] in a line: Pharmacokinetics in rats (exposure, AUC). As to conditions: male, Sprague Dawley, rat, plasma, po, 5 mg/kg. The format is in vivo, male Sprague Dawley rats. As to the method: This study is performed with 6 naïve male Sprague Dawley rats (180-200 g, 6-8 weeks old). Rats are obtained from Janvier, Le Genest St Isle, France.
A controlled environment is maintained in the room with optimal conditions of approximately 15 air changes per hour, a temperature of 22±2 C, a relative humidity of 30-70% and a 12 hour light/dark cycle
Pelleted diet for rodents (UAR A04C-10) is used and is provided ad libitum. Before p.o. dosing, the animals are deprived of food for at least 12 hours before compound administration and 4 hours after administration. All animals had free access to tap water.
Two days before the dosing day, the implantation of a catheter in the jugular vein is done under gaseous anaesthesia with isoflurane.
Rats are dosed intravenously with test compound via a bolus in the tail vein with a dose level of 1 mg/kg. […]
The i.v. bolus and the oral administration are given a dose volume of 5 mL/kg.
From all animals approximately 200 μL blood samples are collected via the catheter and placed into tubes containing Li-heparin as anticoagulant. Blood samples are collected at the various time points (i.v.: 0.05, 0.25, 0.5, 1, 3, 5, 8 and 24 hours after dosing; p.o.: 0.25, 0.5, 1, 3, 5, 8 and 24 hours after dosing).
Blood is kept on ice. Within 1 hour after sampling, blood is centrifuged at 5,000 rpm for 10 min at 4° C. Immediately after centrifugation, the resulting plasma samples are collected into polypropylene tubes and are kept frozen at −20° C. pending bioanalysis.
Plasma samples are assayed by LC-MS/MS. Plasma proteins are precipitated with an excess of methanol containing the internal standard and the corresponding supernatant is injected on a C18 column. Analytes are eluted out the HPLC system by increasing the percentage of the organic mobile phase. An API4000 mass spectrometer (AB Sciex™) is used for the detection and quantification.
Pharmacokinetic parameters are calculated by non-compartmental analysis using WinNonlin® software (Pharsight, version 5.2).

The next series deals with T2, EphB4 (UniProt Ref: Q541P7) (Homo sapiens, UniProt P54760).
T2 construct: purchased Reaction Biology
T2 sequence (P54760 16-987): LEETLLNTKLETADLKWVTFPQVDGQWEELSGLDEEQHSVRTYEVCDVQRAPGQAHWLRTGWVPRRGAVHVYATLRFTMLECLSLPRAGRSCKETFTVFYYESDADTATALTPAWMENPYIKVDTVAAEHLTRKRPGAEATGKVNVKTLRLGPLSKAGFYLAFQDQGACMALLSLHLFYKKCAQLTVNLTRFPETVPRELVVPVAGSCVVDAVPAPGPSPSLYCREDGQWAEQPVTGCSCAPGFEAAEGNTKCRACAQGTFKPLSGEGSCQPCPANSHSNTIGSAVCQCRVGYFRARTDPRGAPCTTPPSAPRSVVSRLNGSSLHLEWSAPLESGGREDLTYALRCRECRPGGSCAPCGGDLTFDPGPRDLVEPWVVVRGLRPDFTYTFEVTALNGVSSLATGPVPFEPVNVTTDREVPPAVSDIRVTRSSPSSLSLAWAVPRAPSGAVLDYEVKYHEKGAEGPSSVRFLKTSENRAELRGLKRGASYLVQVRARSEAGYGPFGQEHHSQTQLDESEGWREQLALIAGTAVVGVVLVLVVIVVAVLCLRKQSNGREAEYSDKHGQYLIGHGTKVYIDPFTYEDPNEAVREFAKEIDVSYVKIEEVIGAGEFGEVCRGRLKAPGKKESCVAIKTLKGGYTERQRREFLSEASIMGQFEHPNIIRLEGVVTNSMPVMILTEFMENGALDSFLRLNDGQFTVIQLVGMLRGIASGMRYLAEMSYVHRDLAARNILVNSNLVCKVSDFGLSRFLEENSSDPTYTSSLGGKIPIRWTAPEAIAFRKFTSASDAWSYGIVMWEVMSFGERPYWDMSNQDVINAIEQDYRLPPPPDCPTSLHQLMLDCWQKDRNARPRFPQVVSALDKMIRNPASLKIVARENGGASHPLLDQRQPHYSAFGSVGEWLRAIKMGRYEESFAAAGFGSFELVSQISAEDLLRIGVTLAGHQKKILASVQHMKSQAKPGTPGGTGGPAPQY
The series is described as follows: EphB4 assay (Reaction Biology HotSpot radioactive kinase assay). To be noted: ATP 10 μM; read-out: EphB4 potency IC50. It counts as biochemical. As for the experimental part:
Inhibition of EphB4 (UniProt Ref: Q541P7) by a test compound is determined by a commercially available Reaction Biology proprietary nanoliter radioactive HotSpot^SM assay (Reaction Biology, One great valley parkway, Suite 2, Malvern Pa., 19355, USA). The principle of the assay consists of the measurement of incorporated ^33P into poly[Glu:Tyr] (4:1) (0.2 mg/mL) when the substrate is phosphorylated by the enzyme using [^33P]-γ-ATP and ATP (10 μM).
To determine the IC50, a serial dilution of compound is tested starting from 10 or 3 μM (highest dilution) with a 1/3 dilution.

The target of a further series is T3, Recombinant EphB2 (Homo sapiens, UniProt P29323).
T3 construct: purchased Carna 08-129
T3 sequence (P29323 19-986 isoform P29323-2 limits assumed): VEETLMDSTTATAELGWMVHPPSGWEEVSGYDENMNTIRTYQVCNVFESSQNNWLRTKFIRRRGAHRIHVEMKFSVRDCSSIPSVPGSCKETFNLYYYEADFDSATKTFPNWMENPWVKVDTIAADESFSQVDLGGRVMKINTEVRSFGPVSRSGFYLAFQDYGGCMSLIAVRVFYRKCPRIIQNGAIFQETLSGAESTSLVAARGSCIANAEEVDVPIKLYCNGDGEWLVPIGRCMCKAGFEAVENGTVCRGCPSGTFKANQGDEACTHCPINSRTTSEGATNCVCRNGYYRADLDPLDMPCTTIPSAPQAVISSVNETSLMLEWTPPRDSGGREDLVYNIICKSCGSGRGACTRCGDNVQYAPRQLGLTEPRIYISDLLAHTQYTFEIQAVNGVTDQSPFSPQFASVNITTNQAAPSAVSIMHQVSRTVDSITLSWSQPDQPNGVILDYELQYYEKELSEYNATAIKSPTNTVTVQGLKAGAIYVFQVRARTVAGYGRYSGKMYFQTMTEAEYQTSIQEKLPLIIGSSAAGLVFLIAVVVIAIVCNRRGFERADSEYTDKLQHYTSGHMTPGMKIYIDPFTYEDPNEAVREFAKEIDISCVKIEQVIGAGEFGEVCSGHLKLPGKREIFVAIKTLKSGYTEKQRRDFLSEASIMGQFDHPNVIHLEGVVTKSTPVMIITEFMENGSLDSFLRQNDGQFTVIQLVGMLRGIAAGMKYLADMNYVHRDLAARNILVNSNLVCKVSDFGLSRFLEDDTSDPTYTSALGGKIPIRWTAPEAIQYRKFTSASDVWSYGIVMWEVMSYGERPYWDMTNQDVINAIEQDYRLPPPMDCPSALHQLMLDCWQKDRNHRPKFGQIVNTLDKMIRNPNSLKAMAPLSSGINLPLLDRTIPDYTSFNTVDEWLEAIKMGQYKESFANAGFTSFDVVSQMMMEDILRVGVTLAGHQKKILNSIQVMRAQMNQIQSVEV
Nature of the series: EphB2 assay (33P incorporation into poly GT, filter plate). The format is biochemical. As to conditions: read-out: EphB2 potency IC50. As for the experimental part: The principle of the assay consists of the measurement of incorporated ^33P into the substrate poly GT when phosphorylated by the enzyme EphB2 using [^33P]-γ-ATP and ATP. Unincorporated ^33P is removed by loading the samples on a filter plate (using a harvester, Perkin Elmer) and 6 subsequent washing steps. ^33P incorporated in polyGT is measured on a Topcount after addition of microscint to the filter plates (Perkin Elmer).
Recombinant EphB2 (Carna Cat#08-129, 0.6 ng per well) was incubated with 0.05 mg/mL Poly(Glu,Tyr)sodium salt (4:1), MW 20 000-50 000 (Sigma catalog number P0275) in kinase reaction buffer (10 mM MOPS pH 7.2, 5 mM DTT, 0.01% Triton-X100, 5 mM MnCl2, 0.5 mM Na3VO4, 5 mM beta-glycerolphosphate), 0.5 μM non-radioactive ATP, 0.25 μCi/25 μl ^33P-gamma-ATP (Perkin Elmer, catalog number NEG602K) final concentrations with or without 5 μL containing test compound or vehicle (DMSO, 1% final concentration), in a total volume of 25 μL, in a polypropylene 96-well plate (Greiner, V-bottom). After 45 min at 30° C., reactions were stopped by adding of 25 μL/well of 150 mM phosphoric acid. The experiment was then conducted as described for EphA7. The ability of a test compound to inhibit the kinase activity was determined using counts per minutes (cpm) measured by the Topcount as:
Cpm (cpd): cpm determined for sample with test compound present
Cpm (control): cpm determined for sample with positive control inhibitor (10 μM staurosporine)
Cpm (vehicle): cpm determined in the presence of vehicle (1% DMSO)
Dose dilution series were prepared for the compounds enabling the testing of dose-response effects in the EphB2 assay and the calculation of the IC50 for each compound. Each compound was routinely tested at concentration of 20 μM followed by a 1/5 serial dilution, 10 points in a final concentration of 1% DMSO. When potency of compound series increased, more dilutions may be prepared and/or the top concentration may be lowered (e.g. 5 μM, 1 μM).

T1 sequence (P29317 24-976): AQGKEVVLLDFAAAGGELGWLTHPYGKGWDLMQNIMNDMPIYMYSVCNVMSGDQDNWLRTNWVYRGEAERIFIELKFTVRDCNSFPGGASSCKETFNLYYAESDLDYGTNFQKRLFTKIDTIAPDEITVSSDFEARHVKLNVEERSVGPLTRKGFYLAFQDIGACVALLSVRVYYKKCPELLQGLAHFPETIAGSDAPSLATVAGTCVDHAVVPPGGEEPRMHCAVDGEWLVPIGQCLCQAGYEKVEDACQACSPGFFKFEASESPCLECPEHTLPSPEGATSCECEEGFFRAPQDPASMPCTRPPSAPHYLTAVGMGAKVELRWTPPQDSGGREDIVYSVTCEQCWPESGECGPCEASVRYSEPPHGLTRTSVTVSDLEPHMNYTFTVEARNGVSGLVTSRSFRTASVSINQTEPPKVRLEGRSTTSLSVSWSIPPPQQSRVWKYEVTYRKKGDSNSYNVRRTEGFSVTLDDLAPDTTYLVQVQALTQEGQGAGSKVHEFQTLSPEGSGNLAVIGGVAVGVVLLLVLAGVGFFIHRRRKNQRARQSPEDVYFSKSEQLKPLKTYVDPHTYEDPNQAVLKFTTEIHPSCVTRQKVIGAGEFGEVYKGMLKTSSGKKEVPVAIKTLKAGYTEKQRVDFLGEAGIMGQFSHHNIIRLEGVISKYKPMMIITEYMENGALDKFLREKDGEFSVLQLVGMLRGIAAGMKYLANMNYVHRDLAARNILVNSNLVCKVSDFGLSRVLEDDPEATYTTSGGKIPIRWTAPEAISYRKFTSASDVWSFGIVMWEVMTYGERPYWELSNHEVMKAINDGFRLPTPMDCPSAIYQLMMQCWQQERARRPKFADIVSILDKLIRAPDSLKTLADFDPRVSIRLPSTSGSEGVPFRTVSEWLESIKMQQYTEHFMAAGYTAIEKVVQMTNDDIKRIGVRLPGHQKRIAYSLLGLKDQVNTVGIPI

Consider `CC(=O)O[C@H]1C(=O)[C@@]2(C)[C@H]([C@H](OC(=O)c3ccccc3)[C@]3(O)C[C@H](OC(=O)[C@H](O)[C@@H](NC(=O)c4ccccc4)c4ccccc4)C(C)=C1C3(C)C)[C@]1(OC(C)=O)CO[C@@H]1C[C@@H]2O` [Paclitaxel, paclitaxel], for which, in the series on MDA-MB-231 cells, the “RTV (Relative Tumor Volume)” value was found to be 2.06, the “T/C (Tumour Vs Control)” value was 24.31% and the “TGI (Tumor Growth Inhibition)” value turned out to be 75.69%.

In the case of `COc1cc(OC)cc(C(=O)Nc2ccc(C)c(-c3ccc4c(CO)n[nH]c4n3)c2)c1` [Compound 10, N-[3-(3-Hydroxymethyl-1H-pyrazolo[3,4-b]pyridin-6-yl)-4-methyl-phenyl]-3,5-dimethoxy-benzamide], the IC50 at EphA2 is 0.01 to 25 nM. Also, in series [1], the AUC is 274 ng·h/mL.

`Cc1cc(C)cc(C(=O)Nc2ccc(C)c(-c3ccc4c(C(O)CN5CCOCC5)n[nH]c4n3)c2)c1` (stereo not drawn) [Compound 7, N-{3-[3-(1-Hydroxy-2-morpholin-4-yl-ethyl)-1H-pyrazolo[3,4-b]pyridin-6-yl]-4-methyl-phenyl}-3,5-dimethyl-benzamide]: the figures for the IC50 at EphA2, on EphB4 and on Recombinant EphB2 were 25 to 50 nM, 0.01 to 25 nM and 0.01 to 25 nM, respectively.

Molecule `CCc1n[nH]c2nc(-c3cc(NC(=O)c4cc(OC)cc(OC)c4)ccc3C)ccc12` [Compound 8, N-[3-(3-Ethyl-1H-pyrazolo[3,4-b]pyridin-6-yl)-4-methyl-phenyl]-3,5-dimethoxy-benzamide] had an AUC in series [1] of 2000 ng·h/mL.

A word on the IC50: it is the concentration that gives 50% inhibition. Broadly, the AUC is concentration integrated over time.
